Assay type in all cases: cell-based, mouse
For one experiment, the system named is mHypoA-59 cell line. The experiment can be described thus: Gene expression by qRT-PCR in mHypoA-59 hypothalamic cell line. The following applies: ATP (data not shown). The procedure:
(§1) Hypothalamic neurons from embryonic and adult mice were previously immortalized to generate the clonal cell lines mHypoE-46, mHypoE-44, mHypoE-41, mHypoE-38, mHypoA-59, a FAC-sorted POMC/GFP mouse-derived cell line, mHypoA-POMC/GFP-2, and a mixed culture mHypoA-Bmal1-WT/F cell line (6, 13, 14). The mHypoE-46, mHypoE-44, and mHypoA-Bmal1-WT/F lines were cultured in DMEM containing 1000 mg/L glucose supplemented with 5% FBS and 1% pen/strep. The mHypoE-41, mHypoE-38, and mHypoA-59 cell lines were cultured in DMEM containing 4500 mg/L glucose supplemented with 2% FBS and 1% pen/strep. The mHypoA-POMC/GFP-2 line was cultured in DMEM containing 1000 mg/L glucose supplemented with 2% FBS and 1% pen/strep. All cells were maintained in 5% CO2 at 37° C. BAP was initially dissolved in DMSO solvent (vehicle control) to achieve 1000x the intended dose. The BAP solution was then diluted 1:1000 with the growth media used for the cell line. For co-treatment experiments, the vehicle control for ATP, UDP, and PKI was water, and for the H89 PKA inhibitor was DMSO. Neuropeptide gene expression levels were determined by qRT-PCR.
(§2) For cell culture experiments, total RNA was isolated using PureLink RNA isolation kit (Thermofisher Scientific, Burlington, ON, Canada) according to the manufacturer's instruction with on column DNase step (PureLink DNAse kit) or DNase I treatment to remove genomic DNA. For mouse experiments, total RNA was isolated using mirVana PARIS RNA and native protein isolation kit (Thermofisher Scientific). RNA quality and quantity were measured using Nanodrop 2000 and 500-1000 ng of complimentary DNA (cDNA) was synthesized with High Capacity cDNA Reverse Transcription kit (Applied biosystems, Thermofisher Scientific). Quantitative reverse transcription polymerase chain reaction (RT-qPCR) was performed with 12.5 ng of cDNA amplified with Platinum SYBR green qPCR SuperMix-UDG with ROX on an Applied Biosystems Prism 7900HT or PowerTrack Green Master Mix on an Applied Biosystems QuantStudio 5 and gene specific primers as per manufacturer's instructions (Table 1). Data was analyzed using […] and normalized to reference gene, either 60S ribosomal protein L7 (Rpl7) or Histone 3a (His).
(In general: Real-time PCR tracks product formation cycle by cycle.)

The subject of the next experiment is mHypoE-44 cell line. In words: Gene expression by qRT-PCR in mHypoE-44 hypothalamic cell line. The following applies: 16 hr. The method, then: as §1, §2
The test system of another experiment is mHypoE-46 cell line. In words: Gene expression by qRT-PCR in mHypoE-46 hypothalamic cell line. The following applies: for Npy expression: 16 hr. The procedure: as §1, §2
In another experiment the test system is mHypoE-41 cell line. The experiment can be described thus: Gene expression by qRT-PCR in mHypoE-41 hypothalamic cell line. The following applies: 100 μM ATP, 16 hr. The method, then:
as §1, §2

The next experiment deals with AMPK. In words: AMPK phosphorylation by Western blot in mHypoE-46. The following applies: 500 μM AICAR, 15 min, mHypoE-46, positive control. The method, then:
mHypoE-46 cells were serum starved in 5.5 mM glucose (LG) DMEM for 1 hour prior to treatment with vehicle (0.1% DMSO), 100 µM BAP or H20, […] 5-Aminoimidazole-4-carboxamide ribonucleotide (AICAR) or 0 mM glucose DMEM. Protein was harvested using 1× cell lysis buffer (Cell Signaling Technologies, Inc, CST) containing protease and phosphatase inhibitors. A total of 30 μg protein was separated on a 12% SDS-polyacrylamide gels and transferred onto PVDF membranes. Membranes were blocked in 5% milk dissolved in Tris-buffered saline with Tween 20 (TBS-T) for 1 h and incubated with primary antibody overnight at 4° C. phospho-AMPKα (Thr172; cat. 2532S, CST), and total AMPKα (cat. 2535S, CST); phospho-p70-S6K (Thr389; cat. 9205S, CST) and total p70-S6K (cat. 9202S, CST); insulin receptor ß (cat. 3025S, CST); phospho-AKT (Ser473; cat. 9271S, CST) and total AKT (cat. 9272S, CST); phospho-ERK1/2 (Thr202/Tyr204; cat. 9101, CST) and total ERK (cat. 4695, CST) were diluted 1:1000 in 5% milk in TBS-T. Membranes were washed and incubated with secondary HRP-linked antirabbit antibody (1:7500 in 5% milk in TBS-T, CST) for 1 h, washed, and imaged using the Signal Fire ECL Reagent (CST) on the iBright 1500 Imaging System (Thermofisher). Protein density was quantified using ImageJ or the iBright Imaging System.
(In western blotting, separated proteins are transferred to a membrane and probed.)

With `Nc1ncnc2c1ncn2[C@@H]1O[C@H](COP(=O)(O)OP(=O)(O)OP(=O)(O)O)[C@@H](O)[C@H]1O` [ATP, reference compound], in the experiment with mHypoA-59 cell line, the Agrp expression entry is listed as “increased”. The Npy expression entry in the experiment on mHypoA-59 cell line is given as “increased”; in the experiment on mHypoE-44 cell line (100 μM ATP) it was “induces the expression of Npy”; in the experiment with mHypoE-46 cell line (100 μM ATP), “induces the expression of Npy”; with mHypoE-41 cell line it was “induces the expression of Npy”.
For the molecule `c1coc(CNc2ncnc3[nH]cnc23)c1` [kinetin], the “repression of Npy transcripts” value with mHypoE-46 cell line (100 μM kinetin, 16 h, n=2 preliminary) is listed as ~50%.
For the molecule `O=c1ccn([C@@H]2O[C@H](COP(=O)(O)OP(=O)(O)OP(=O)(O)O)[C@@H](O)[C@H]2O)c(=O)[nH]1` [UTP, reference compound], the “basal Npy expression” value with mHypoE-44 cell line (100 μM UTP, n=2 preliminary) is listed as “may decrease the basal expression of Npy”. Besides, in the experiment with mHypoE-46 cell line (100 μM UTP, n=2 preliminary), the Npy expression entry was “no effect”.
Take `O=c1ccn([C@@H]2O[C@H](COP(=O)(O)OP(=O)(O)O)[C@@H](O)[C@H]2O)c(=O)[nH]1` [UDP, reference compound]: the figures for the Npy expression entry in the experiment with mHypoE-44 cell line (100 μM UDP) and in the experiment with mHypoE-46 cell line (100 μM UDP) were “unable to affect the expression of Npy” and “no effect”, respectively.
Regarding `NC(=O)c1ncn([C@@H]2O[C@H](COP(=O)(O)O)[C@@H](O)[C@H]2O)c1N` [AICAR, 5-Aminoimidazole-4-carboxamide ribonucleotide, reference compound], in the experiment with AMPK, the “AMPK phosphorylation (activation) vs vehicle” value was “significantly activate AMPK”.
